Read-outs that look alike come from different tables or passages of the source.
Legend:
[1] = tested on: ATCC strain 43300 Staphylococcus aureus; settings: methicillin alone, 12 μg/ml, 30 μg/ml and 60 μg/ml
Protocol: Additional antibiotic was added every 24 hours. The growth periods tested were 24 (FIG. 5), 48, 72, 96 and 120 hours.
USP<51> Antimicrobial Effectiveness protocol was used as the template experimental paradigm. […] All concentrations were plated out to the 10^−7 dilutions to ascertain cfu/ml. […] Additional antibiotic was added at the initial concentration every 24 hours.
ATCC strain 43300 Staphylococcus aureus was streaked out for isolations. An isolated colony was chosen, streaked again and incubated. Isolate was chosen and then diluted to a McFarland standard of one. The estimated value was then taken to inoculate tubes containing growth media and 12, 30 or 60 μg/ml methicillin with approximately 10^5 cfu/ml. These tubes were incubated and plated for counting cfu.
Material was calculated on a 10 ml volume. Sterile methicillin was added to each experimental condition to a final concentration of 12, 30 or 60 μg/ml antibiotic. Lactose Broth positive controls both with and without the 12 μg/ml, 30 μg/ml, 60 μg/ml antibiotic were inoculated with MRSA. […] Tubes were set up in singlet, but plated in triplicate, as described below.
All tubes were then inoculated with a dilution of the selected ATCC strain 43300 Staphylococcus aureus clone giving a final level of colony forming units of 1.49×10^5/ml (log=5.17). The tubes were incubated at 25° C. and mixed periodically. Antibiotic was re-inoculated every 24 hours at the initial concentration to maintain pressure on the organism. Plating was done at 24, 48, 72, and 120 hours. Each condition was plated by diluting 1 ml of growth material into 9 ml of MLB diluent broth. […] This mixture was serial diluted down to 10^−7 with 1 ml placed in triplicate in a sterile petri dish at each dilution point. 20 mls of TSA was added to each dilution, swirled and allowed to solidify. All dilutions were placed in a 35° C. incubator for 24 to 72 hours. Bacterial colonies on each plate were counted and the average taken then changed into log format.

[2] = tested on: ATCC strain 43300 Staphylococcus aureus; settings: oxacillin alone, 12 μg/ml, 30 μg/ml and 60 μg/ml
Protocol: Additional antibiotic was added every 24 hours.
USP<51> Antimicrobial Effectiveness protocol was used as the template experimental paradigm. […] All concentrations were plated out to the 10^−7 dilutionsto ascertain cfu/ml. […] Additional antibiotic was added at the initial concentration every 24 hours.
ATCC strain 43300 Staphylococcus aureus was streaked out for isolations. An isolated colony was chosen, streaked again and incubated. Isolate was chosen and then diluted to a McFarland standard of one. The estimated value was then taken to inoculate tubes containing growth media and 12, 30 or 60 μg/ml oxacillin with approximately 10^5 cfu/ml. These tubes were incubated and plated for counting cfu.
Material was calculated on a 10 ml volume. Sterile oxacillin was added to each experimental condition to a final concentration of 12, 30 or 60 μg/ml antibiotic.
All tubes were then inoculated with a dilution of the selected ATCC strain 43300 Staphylococcus aureus clone giving a final level of colony forming units of 3.3×10^5/ml (log=5.52). The tubes were incubated at 25° C. and mixed periodically. Antibiotic was re-inoculated every 24 hours at the initial concentration to maintain pressure on the organism. Plating was done at 24, 48, 72, and 120 hours. Each condition was plated by diluting 1 ml of growth material into 9 ml of MLB diluent broth. […] This mixture was serial diluted down to 10^−7 with 1 ml placed in triplicate in a sterile petri dish at each dilution point. 20 mls of TSA was added to each dilution, swirled and allowed to solidify. All dilutions were placed in a 35° C. incubator for 24 to 72 hours. Bacterial colonies on each plate were counted and the average taken then changed into log format. Any cfu/ml observed greater than 3.3×10^5 (log=5.5) were recorded as >3.3×10^5.

[3] = tested on: drug sensitive Staphylococcus aureus; settings: Etest system; cited from earlier work

Row | SMILES | change in colony forming units from initial inoculum [1] | change in colony forming units from initial inoculum [2] | MIC [3]
1 | COc1cccc(OC)c1C(=O)N[C@@H]1C(=O)N2[C@@H]1SC(C)(C)[C@@H]2C(=O)O [methicillin, reference compound] | no significant decrease in colony forming units |  | 
2 | Cc1onc(-c2ccccc2)c1C(=O)N[C@@H]1C(=O)N2[C@@H]1SC(C)(C)[C@@H]2C(=O)O [oxacillin, reference compound] |  | no significant decrease in colony forming units | ≤ 2 µg/mL

From US8217085B2 (priority 2009, dated 2012)
